We go through 2 compounds from patent US20210244728A1, “Method of treating peripheral neuropathy” (Chemedest Ltd., priority 2012, published 2021).

The subject of one data set is animals. The following applies: systemic administration in animals; cited from earlier work.
Data set [1] has as its system spinal nerve-ligated rats. The experiment in a line: Von Frey test in Chung model (spinal nerve ligation) of neuropathic pain. It counts as in vivo. The following applies: for Signs of sedation or toxicity: during pretreatment or testing. From the text:
The study was designed to evaluate the analgesic efficacy of test compounds in the rat Chung model of neuropathic pain.
Male Sprague Dawley rats (100-125 g) from Harlan (Indianapolis, Ind.) were used in the study. Upon receipt, rats were assigned unique identification numbers and were group housed with 3 rats per cage in polycarbonate cages with micro-isolator filter tops. All rats were examined, handled, and weighed prior to initiation of the study to assure adequate health and suitability. During the course of the study, 12/12 light/dark cycles were maintained, with lights on at 7:00 am EST. The room temperature was maintained between 20 and 23° C. with a relative humidity maintained around 50%. Chow and water were provided ad libitum for the duration of the study.
Reference compound: Gabapentin (100 mg/kg; TRC, Lot No. 1-SWM-154-1) was dissolved in saline and administered acutely on test day (day 8 or 12) 1 hour prior to testing, at a dose volume of 1 ml/kg, p.o.
Test compounds: CHM-65 (5, 15 and 25 mg/kg, Q.D., Lot n/a) was dissolved in sterile injectable saline and administered subcutaneously on days 1, 3, 5 and 8 with the first administration (day 1) occurring 1 hour post-op. On day 8, compound was administered 1 hour prior to testing. The dose volume was 3 ml/kg.
CHM-36 (20 mg/kg, Q.D., Lot n/a) was dissolved in sterile injectable saline and administered subcutaneously on days 1, 3, 5 and 8 with the first administration (day 1) occurring 1 hour post-op. On day 8, compound was administered 1 hour prior to testing. The dose volume was 5 ml/kg.
Artemin (CHMB-1) (0.5 mg/kg, Q.D., Lot n/a) was administered subcutaneously on days 1, 3, 5, 8, 10 and 12 with the first administration (day 1) occurring 1 hour post-op. On day 12, compound was administered 1 hour prior to testing. The dose volume was 0.5 ml/kg.
Under general anesthesia with continuous inhalation of isoflurane, surgery was performed with aseptic procedures in surgery unit. Sterile ophthalmic ointment was used to lubricate the eyes. Animals were observed continuously for the level of anesthesia, testing for the animal's reflex response to tail or paw pinch and closely monitoring the animal's breathing. A heating pad was used to maintain body temperature at 37° C. while the animals recovered from anesthesia. The skin at the area of the lower lumber and sacral level of the rat was shaved and disinfected with betadine and alcohol. A left longitudinal incision at the level next to the vertebral column was made and the left paraspinal muscles were separated. The transverse process of L6 was removed and nearby connective tissue cleaned to expose L5 and L6 spinal nerves. After the nerves were isolated and clearly visualized, 4-0 silk threads were used to ligate the left L5. The muscles were sutured with 4-0 silk threads and the wound closed by staples. All rats received an analgesic (buprenorphine, 0.05 mg/kg, s.c.) immediately before and 6 hours after surgery. Each rat was monitored until awake and moving freely around the recovery chamber. Animals were then single-housed for the duration of the study. Rats began their chronic-treatment regimen (all test groups except gabapentin) 1 hour post-op on surgery day.
Withdrawal from a mechanical stimulus was measured by applying von Frey (VF) filaments of ascending bending force to the plantar surface of the hind paws (ipsilateral and contralateral). A positive response was defined as withdrawal from the von Frey filament. […]

For data set [2], the system named is rats with SNL (spinal nerve ligation). The following applies: repeated injection; cited from earlier work.
Data set [3] has as its system peripheral neuron populations (dorsal root, trigeminal, nodose, superior cervical ganglia) and cultured fetal ventral mesencephalic DA neurons. The following applies: cited from earlier work.
In another data set the test system is sciatic-ligated rats. The experiment in a line: Von Frey test in Bennett model (chronic constrictive injury of the sciatic nerve) of neuropathic pain. It counts as in vivo, Male Sprague Dawley rats. From the text:
The study was designed to evaluate the analgesic efficacy of compound XV (CHM-65) in the Bennett model of neuropathic pain.
Male Sprague Dawley rats (100-125 g) from Harlan (Indianapolis, Ind.) were used in the study. Upon receipt, rats were assigned unique identification numbers and were group housed with 3 rats per cage in polycarbonate cages with micro-isolator filter tops. All rats were examined, handled, and weighed prior to initiation of the study to assure adequate health and suitability. During the course of the study, 12/12 light/dark cycles were maintained, with lights on at 7:00 am EST. The room temperature was maintained between 20 and 23° C. with a relative humidity maintained around 50%. Chow and water were provided ad libitum for the duration of the study. […]
This surgery was performed according to Bennett and Xie (1988). […] Each rat was monitored until awake and moving freely around the recovery chamber. […]
Withdrawal from a mechanical stimulus was measured by applying von Frey (VF) filaments of ascending bending force to the plantar surface of the hind paws (ipsilateral and contralateral). […]
Data were analyzed by one-way analysis of variance (ANOVA) followed by Fisher PLSD post-hoc comparisons. […]

Turning to “CHMB-1: GDNF family ligand artemin (ARTN), neurotrophic factor signalling through GFR α 3/RET”, the “restoration of nociceptive and sensorimotor functions” value with animals was “essentially complete and persistent restoration”. In addition, the “ipsilateral paw withdrawal threshold compared to vehicle” value in data set [1] (0.5 mg/kg s.c. on days 1, 3, 5, 8, 10 and 12, tested day 12, 1 hour after administration, FIG. 7) was “significantly increased”. For the same compound, in data set [2], the “behavioral responses to light touch and noxious thermal stimuli” value is “dose-dependent normalization”; the “behavioral signs of toxicity” value is “without producing behavioral signs of toxicity”. Besides, the “survival of peripheral neuron populations and cultured fetal ventral mesencephalic DA neurons” value in data set [3] is “promote the survival”.
Consider `NCC1(CC(=O)O)CCCCC1` [gabapentin, Gabapentin], for which the “Signs of sedation or toxicity” value is reported as “not observed” in the data set on sciatic-ligated rats (during pretreatment or testing, Bennett model study); “not observed” in data set [1] (CHM-36 study); “not observed” in data set [1] (artemin study). For the same compound, the “ipsilateral paw withdrawal threshold compared to vehicle” value with sciatic-ligated rats (gabapentin 100 mg/kg p.o., acute on day 12, 1 hour prior to testing, FIG. 3) is “significantly increased”; in data set [1] (gabapentin 100 mg/kg p.o., acute on test day, 1 hour prior to testing, CHM-36 study, FIG. 5), “significantly increased”; in data set [1] (gabapentin 100 mg/kg p.o., acute on test day, 1 hour prior to testing, artemin study, FIG. 7), “significantly increased”.
